Test results: US20050282818A1, “Ubiquitin ligase inhibitors” (Rigel Pharmaceuticals, Inc., priority 2004, published 2005)
Where two headings read alike, the source gives them in different places.

Assays:
[1] = molecular target: T1, TRAF6/Uev1A/Ubc13 (Homo sapiens, UniProt Q9Y4K3); assay: TRAF6/Uev1A/Ubc13 plate-based ubiquitin ligase assay; assay type: biochemical
T1 sequence (Q9Y4K3 1-522): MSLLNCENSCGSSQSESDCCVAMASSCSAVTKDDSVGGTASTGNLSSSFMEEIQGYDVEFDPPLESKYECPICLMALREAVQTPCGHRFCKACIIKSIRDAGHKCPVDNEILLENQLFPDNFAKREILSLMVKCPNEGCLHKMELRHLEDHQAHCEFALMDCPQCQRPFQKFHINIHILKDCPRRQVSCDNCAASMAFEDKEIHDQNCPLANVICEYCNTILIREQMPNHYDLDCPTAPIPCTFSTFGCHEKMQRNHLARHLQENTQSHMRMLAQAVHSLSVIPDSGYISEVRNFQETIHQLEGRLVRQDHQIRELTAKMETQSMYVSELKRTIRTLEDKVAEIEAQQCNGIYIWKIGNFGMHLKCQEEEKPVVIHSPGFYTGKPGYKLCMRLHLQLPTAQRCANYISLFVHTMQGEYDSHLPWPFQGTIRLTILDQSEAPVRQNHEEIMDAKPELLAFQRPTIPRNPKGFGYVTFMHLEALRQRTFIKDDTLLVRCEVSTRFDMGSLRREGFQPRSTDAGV
Method in brief: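 Ligase activity was read as luminescence from anti-Flag/HRP detection of Flag-ubiquitin bound to casein-blocked Ni-plates alongside His-ubiquitin after a 1 h room-temperature reaction. Buffer: 62.5 mM Tris pH 7.5, 6.25 mM MgCl2, 1.0 mM DTT, 2 μM ATP; E1, Uev1a/Ubc13 and TRAF6 added last to start. IC50s derived across compound concentrations.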

[2] = molecular target: APC11/APC2 (Homo sapiens, UniProt Q9NYG5+Q9UJX6); assay: APC-11/APC-2 ligase assay (APC auto ubiquitination); assay type: biochemical; conditions: APC assay
Protocol: For the assays described below, the TRAF6/Uev1A/UBC13 assay is the biochemical plate-based assay of TRAF6 ligase activity using Ubc13 as the E2 enzyme. The gel-based assay is the biochemical solution-based TRAF6 ligase assay (by SDS-PAGE and Western blot) to confirm the plate-based ELISA assay. The APC assay is an assay which is another E3 ligase (APC2/APC11) biochemical assay.
E3 (His APC11/APC2— “APC”) auto ubiquitination was measured as described in U.S. patent application Ser. No. 09/826,312 (Publication No. U.S. 2002 0042083 A1), which is incorporated by reference in its entirety. Details of the protocol are described below. Activity in the presence of the compound was determined relative to a parallel control in which only DMSO was added. Values of the IC50 were typically determined using 6 or 8 different concentrations of the compound, although as few as 2 concentrations may be used to approximate the IC50 value.
Nickel coated 96 well plates (Pierce 15242) were blocked for 1 hour with 100 μl of blocking buffer at room temperature. The plates were washed 4 times with 225 μl of 1 […]PBS and 80 μl of the reaction buffer were added that contained 100 ng/well of Flag ubiquitin. To this, 10 μl of the test compound diluted in DMSO were added. After the test compound was added, 10 μl of E1 (human), E2 (Ubch5c), and APC in Protein Buffer was added to obtain a final concentration of 5 ng/well of E1, 20 ng/well of E2 and 100 ng/well of APC. The plates were shaken for 10 minutes and incubated at room temperature for 1 hour. After incubation, the plates were washed 4 times with 225 μl of 1×PBS and 100 μl/well of Antibody Mix were added to each well. The plates were incubated at room temperature for another hour after which they were washed 4 times with 225 μl of 1×PBS and 100 μl/well of Lumino substrate were added to each well. The luminescence was measured by using a BMG luminescence microplate reader. The Blocking Buffer (1% Casein in 1×PBS) was stored at 4° C. until use.
The reaction buffer consisted of 62.5 mM Tris pH 7.6 (Trizma Base—Sigma T 8524), 3 mM MgCl2 (Magnesium Chloride—Sigma M 2393), 1 mM DTT (Sigma D 9779), 2.5 mM ATP (Roche Boehringer Mann Corp. 635 316), 100 ng/well of Flag ubiquitin, 0.1% BSA (Sigma A 7906), and 0.05% Tween 20 (Sigma P 7949).
The Protein Buffer consisted of 20 mM Tris pH 7.6, 10% glycerol (Sigma G 5516) and 1 mM DTT.
The antibody mix consisted of 0.25% BSA (Sigma A 7906) in 1×PBS, 1/50,000 anti Flag (Sigma F 3165), 1/100,000 of anti Mouse IgG HRP (Jackson Imrunoresearch #115 035 146).
The substrate mix consisted of SuperSignal Substrate from Pierce (catalog number 37070ZZ) and was prepared by mixing 100 ml of the peroxide solution, 100 ml of the enhancer solution and 100 ml of Milli Q® water.

[3] = tested on: ICAM-1 expression in A549 cells; assay: ICAM assay (IL-1 induced ICAM-1/CD54 expression in A549 cells); assay type: cell-based, human
From the text: The expression of intercellular adhesion molecule (ICAM)-1 in endothelial cells is pivotal in supporting lymphocyte migration across the vascular endothelium. TNF/IL-1 induces the NF-kB pathway in which NF-kB acts as a transcription factor and activation of NF-kB induces ICAM expression. IkB inhibits NF-KB by binding to it and retaining NF-kB in the cytoplasm. Upon cytokine stimulation, several signaling molecule including TRAF6, IKKs, and TAK1 are activated which lead to the phosphorylation of IkB. Phosphorylated IkB is then ubiquitinated by the SCF complex and degraded by proteasome, thereby releasing NF-kB to translocate into the nucleus. In the nucleus, NF-kB binds to DNA and activates transcription of various genes that are involved in inflammation, cell survival, and apoptosis. The ICAM assay is a primary assay for HTS as well as a cell based assay for TRAF6 inhibitors.
The following materials are used 96-well plates; F12K complete medium that includes 10% FBS and 1% P/S (penicillin/streptomycin); 1×PBS; 5 ug/ml IL-1, Human CD54 (CALTAG Laboratory, Cat#MHCD5400-4); anti-mouse-IgG (Jackson Lab, Cat#115-035 146); and A549 cells.
Procedure. 10,000 A549 cells/well were seeded in 100 μl F12K complete medium in a 96-well white plate. The seeded plate was incubate at 37° C. incubator in 5% CO2 overnight. After the overnight incubation, 4 μl of diluted test compound was added and incubated for 1 hour at 37° C. After the 1 hour incubation, 4 μl of 25 ng/ml IL-1 was added to each well and the cells were stimulated at 37° C. for 4 hours.
After stimulation, the cells were stained with CD54 (1:1000 diluted with medium) and anti-mouse IgG (1:1100 diluted with medium) for 1 hour. Subsequently, the medium was removed and each well was washed with 200 μl of PBS three times. Detection of activity was performed by addition of 100 μl/well of lumino substrate.

[4] = tested on: A549 cells; assay: Cell proliferation PAD assay, A549; assay type: cell-based; conditions: 48 hours
Method in brief: (§1)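 2,000 cells/well; compound added at 24 h (duplicate, 6.3-fold series, 10 mM stock, 500× dilution into wells); 48 h, 37 °C/5% CO2. Formamide fix, DAPI stain, image-based counts of live (proliferation), apoptotic, dead cells.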

[5] = tested on: H1299 cells; assay: Cell proliferation PAD assay, H1299; assay type: cell-based; conditions: 48 hours
Method in brief: as §1

[6] = Homo sapiens, 3pt, read-out: A549 3pt
[7] = Homo sapiens, NCI-H1299, 3pt, read-out: H1299 3pt
[8] = Homo sapiens, 6pt, read-out: A549 6pt
[9] = Homo sapiens, NCI-H1299, 6pt, read-out: H1299 6pt

APC11/APC2, sequence (Q9NYG5 whole entry): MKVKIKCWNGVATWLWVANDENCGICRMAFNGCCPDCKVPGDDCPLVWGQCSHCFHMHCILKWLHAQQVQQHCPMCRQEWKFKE
APC11/APC2, sequence (Q9UJX6 whole entry): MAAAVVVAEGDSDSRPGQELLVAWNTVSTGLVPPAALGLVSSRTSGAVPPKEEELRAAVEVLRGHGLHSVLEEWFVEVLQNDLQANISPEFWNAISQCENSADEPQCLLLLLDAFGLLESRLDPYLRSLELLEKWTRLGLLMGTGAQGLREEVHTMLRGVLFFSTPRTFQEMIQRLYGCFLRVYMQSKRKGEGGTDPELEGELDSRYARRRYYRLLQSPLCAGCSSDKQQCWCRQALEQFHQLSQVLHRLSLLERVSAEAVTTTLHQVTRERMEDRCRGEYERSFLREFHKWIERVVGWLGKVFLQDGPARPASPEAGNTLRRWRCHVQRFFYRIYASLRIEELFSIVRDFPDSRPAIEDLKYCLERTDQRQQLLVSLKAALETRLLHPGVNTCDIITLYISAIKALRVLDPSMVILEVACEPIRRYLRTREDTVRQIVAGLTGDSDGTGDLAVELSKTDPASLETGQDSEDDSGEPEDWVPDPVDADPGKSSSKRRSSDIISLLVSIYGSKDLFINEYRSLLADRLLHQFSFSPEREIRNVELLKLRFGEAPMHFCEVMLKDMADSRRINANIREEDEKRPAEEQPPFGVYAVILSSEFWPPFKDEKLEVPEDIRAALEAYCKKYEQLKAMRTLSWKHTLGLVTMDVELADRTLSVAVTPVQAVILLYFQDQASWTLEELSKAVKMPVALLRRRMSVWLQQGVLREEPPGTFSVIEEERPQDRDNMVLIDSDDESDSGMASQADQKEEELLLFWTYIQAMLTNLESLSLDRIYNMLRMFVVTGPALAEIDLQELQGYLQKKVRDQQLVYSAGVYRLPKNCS

| Compound | IC50 [1] [µM] | IC50 [2] [µM] | IC50 ([3]; Homo sapiens, A549, ICAM assay) [µM] | other results |
| --- | --- | --- | --- | --- |
| O=[N+]([O-])c1ccc(N2CCN(c3cnccn3)CC2)c2nonc12 [compound 84] | 1 to 20 | 1 to 20 |  |  |
| O=[N+]([O-])c1ccc(Sc2cccc(Cl)c2)c2nonc12 [compound 149, 4-[(3-chlorophenyl)thio]-7-nitro-2,1,3-benzoxadiazole] | 1 to 20 | 1 to 20 |  |  |
| Cc1ccc(Sc2ccc([N+](=O)[O-])c3nonc23)cc1 [compound 157, 4-[(4-methylphenyl)thio]-7-nitro-2,1,3-benzoxadiazole] | 1 to 20 | 1 to 20 |  |  |
| N#Cc1cccnc1N1CCN(S(=O)(=O)c2c(Sc3cccc4cccnc34)ccc3nonc23)CC1 [compound 183, 2-(4-{[5-(quinolin-8-ylthio)-2,1,3-benzoxadiazol-4-yl]sulfonyl}piperazin-1-yl)nicotinonitrile] | 1 to 20 | 1 to 20 |  |  |
| CN1CCN(S(=O)(=O)c2ccc(Cl)c3nonc23)CC1 [compound 189, 4-chloro-7-[(4-methylpiperazin-1-yl)sulfonyl]-2,1,3-benzoxadiazole] | ≥ 20 |  | ≥ 20 | IC50 [4, 6]: 1 to 20 µM; IC50 [5, 7]: 1 to 20 µM |
| O=c1[nH]c2ccccc2n1C1CCN(S(=O)(=O)c2ccc(Sc3cccc4cccnc34)c3nonc23)CC1 [compound 190, 1-(1-{[7-(quinolin-8-ylthio)-2,1,3-benzoxadiazol-4-yl]sulfonyl}piperidin-4-yl)-1,3-dihydro-2H-benzimidazol-2-one] | 1 to 20 | 1 to 20 |  |  |
| O=S(=O)(c1ccc(Sc2cccc3cccnc23)c2nonc12)N1CCN(c2ccccc2)CC1 [compound 217, 8-({7-[(4-phenylpiperazin-1-yl)sulfonyl]-2,1,3-benzoxadiazol-4-yl}thio)quinoline] | 1 to 20 |  | ≥ 20 | IC50 [4, 8]: 1 to 20 µM; IC50 [5, 9]: 1 to 20 µM |
| O=S(=O)(c1ccc(Cl)c2nonc12)N1CCC(Oc2ncccn2)CC1 [compound 225, 4-chloro-7-{[4-(pyrimidin-2-yloxy)pipendin-1-yl]sulfonyl}-2,1,3-benzoxadiazole] | ≥ 20 |  |  | IC50 ([3]; ICAM assay): ≥ 20 µM; IC50 ([4]; 3pt, read-out: A549 3pt): 1 to 20 µM; IC50 ([5]; 3pt, read-out: H1299 3pt): 1 to 20 µM |
| O=S(=O)(c1c(Cl)ccc2nonc12)N1CCC(Oc2ccccc2C(F)(F)F)CC1 [compound 229, 5-chloro-4-({4-[2-(trifluoromethyl)phenoxy]piperidin-1-yl}sulfonyl)-2,1,3-benzoxadiazole] | 1 to 20 |  | ≥ 20 | IC50 [4, 8]: 1 to 20 µM; IC50 [5, 9]: < 1 µM |
| O=S(=O)(c1c(Cl)ccc2nonc12)N1CCC(Oc2ncccn2)CC1 [compound 234] | ≥ 20 |  | ≥ 20 | IC50 [4, 6]: 1 to 20 µM; IC50 [5, 7]: 1 to 20 µM |
| O=S(=O)(c1c(N2CCC(Oc3ncccn3)CC2)ccc2nonc12)N1CCC(Oc2ncccn2)CC1 [compound 236, 5-[4-(1,3-pyrimidin-2-yloxy)piperidin-1-yl]-4-{[4-(1,3-pyrimidin-2-yloxy)piperidin-1-yl]sulfonyl}-2,1,3-benzoxadiazole] | ≥ 20 |  | ≥ 20 | IC50 [4, 6]: 1 to 20 µM; IC50 [5, 7]: 1 to 20 µM |
| O=[N+]([O-])c1ccc([S+]([O-])c2cccc3cccnc23)c2nonc12 (centres unmarked) [compound 291, 8-[(7-nitro-2,1,3-benzoxadiazol-4-yl)sulfinyl]quinoline] | 1 to 20 |  | ≥ 20 | IC50 [4, 8]: < 1 µM; IC50 [5, 9]: < 1 µM |
| O=[N+]([O-])c1ccc(-c2cc(F)cc(F)c2)c2nonc12 [compound 308, 4-[(3,5-Difluoro)phenyl]-7-nitro-2,1,3-benzoxadiazole] | ≥ 20 | 1 to 20 | 1 to 20 |  |
| O=[N+]([O-])c1ccc(-c2ccc(C(F)(F)F)cc2)c2nonc12 [compound 311, 4-Nitro-7-[4-(trifluoromethyl)phenyl]-2,1,3-benzoxadiazole] | 1 to 20 | 1 to 20 | 1 to 20 |  |
| O=[N+]([O-])c1ccc(-c2ccc(C(F)(F)F)cc2C(F)(F)F)c2nonc12 [compound 312, 4-[2,4-Bis(trifluoromethyl)phenyl]-7-nitro-2,1,3-benzoxadiazole] | 1 to 20 | 1 to 20 | ≥ 20 |  |
| O=C1OC2(CCN(S(=O)(=O)c3ccc(Cl)c4nonc34)CC2)c2ccccc21 [compound 332, 1′-{[7-chloro-(2,1,3-benzoxadiazol-4-yl)]sulfonyl}-3H-spiro[2-benzofuran-1,4′-piperidin]-3-one] | ≥ 20 | 1 to 20 | ≥ 20 |  |
| O=S(=O)(c1ccc(Sc2cccc3ccccc23)c2nonc12)N1CCC2(CC1)OCc1ccccc12 [compound 334, 1′-{(7-[naphth-1-ylthio]-2,1,3-benzoxadiazol-4-yl)}sulfonyl-3H-spiro[2-benzofuran-1,4′-piperidine]] | ≥ 20 | ≥ 20 | 1 to 20 |  |
